According to patent US12582633B2 (priority 2020, dated 2026):
≈ marks a conversion by molar mass, not a printed value. Where “and” joins values, the source holds several entries; their conditions need not be identical. Identical values can stand only once.

Columns and labels:
SARS-CoV-2 = assay: microbe, parasite or virus in culture; assay type: cell-based

For `O=C1CN(/N=C/c2ccc(-c3ccc([N+](=O)[O-])cc3)o2)C(O)=N1` [dantrolene], the “Day 2 Read (CPE)” value (SARS-CoV-2) was 3/3 wells had No CPE and 3/3 wells had > 90% CPE and 3/3 wells had sparse, the “Day 4 Read (CPE)” value (SARS-CoV-2) was 3/3 wells had No CPE and 2/3 wells had > 90% CPE and 1/3 wells had > 90% CPE and 3/3 wells had > 90% CPE and 3/3 wells had sparse and the “Day 6 Read (CPE)” value (SARS-CoV-2) was 3/3 wells had No CPE and 2/3 wells had > 90% CPE and 1/3 wells had > 90% CPE and 3/3 wells had > 90% CPE and 3/3 wells had sparse. For the same molecule, the MIC (SARS-CoV-2; Severe acute respiratory syndrome coronavirus 2, read-out: minimum inhibitory concentration) was 20 µM (≈ 6.29 µg/mL) and the “cell viability of uninfected Vero E6 cells” value (Vero E6 cells) was “good cell viability”.
